Reference: US10618918B2, “Substituted boronic acids as antimicrobials” (priority 2015, dated 2020)
pKi: −log10 of the molar value. Where two headings read alike, the source gives them in different places.

Columns and labels:
KP1004 KPC-2 [1] = test: Biapenem potentiation (MPC@1), strain KP1004 KPC-2; type: cell-based; details: minimum BLI concentration inhibiting growth with biapenem 1 μg/mL; tested up to 40 μg/mL
Experimental: (§1) Biapenem was present in the test medium at 1 μg/mL. […] Table 3 summarizes the BLI potency of biapenem potentiation (MPC@1) for two strains overexpressing class A (KPC) and class D (OXA-48) carbapenemases. Biapenem MIC for each strain is also shown.

KP1086 OXA-48 = test: Biapenem potentiation (MPC@1), strain KP1086 OXA-48; type: cell-based; details: minimum BLI concentration inhibiting growth with biapenem 1 μg/mL; tested up to 40 μg/mL
Experimental: as §1

[2] = biological target: purified class A, C and D enzymes (β-lactamases) (Escherichia coli, UniProt Q9L5C7); test: biochemical; type: biochemical
[3] = biological target: purified class A, C and D enzymes (β-lactamases) (Klebsiella pneumoniae, UniProt Q6XEC0); test: biochemical; type: biochemical
[4] = biological target: purified class A, C and D enzymes (β-lactamases) (Klebsiella pneumoniae, UniProt Q9F663); test: biochemical; type: biochemical
ECL1002 = test: Aztreonam potentiation (MPC@4), strain ECL1002; details: minimum BLI concentration inhibiting growth with aztreonam 4 μg/mL; tested up to 40 μg/mL
ec308 SHV-5 = test: Aztreonam potentiation (MPC@4), strain ec308 SHV-5; details: minimum BLI concentration inhibiting growth with aztreonam 4 μg/mL; tested up to 40 μg/mL
ec302 TEM-10 = test: Aztreonam potentiation (MPC@4), strain ec302 TEM-10; details: minimum BLI concentration inhibiting growth with aztreonam 4 μg/mL; tested up to 40 μg/mL
KP1004 KPC-2 [5] = test: Aztreonam potentiation (MPC@4), strain KP1004 KPC-2; details: minimum BLI concentration inhibiting growth with aztreonam 4 μg/mL; tested up to 40 μg/mL
EC1010 CMY-6 = test: Aztreonam potentiation (MPC@4), strain EC1010 CMY-6; details: minimum BLI concentration inhibiting growth with aztreonam 4 μg/mL; tested up to 40 μg/mL
KP1010 SHV-12 = test: Aztreonam potentiation (MPC@4), strain KP1010 SHV-12; details: minimum BLI concentration inhibiting growth with aztreonam 4 μg/mL; tested up to 40 μg/mL
KP1009 CTX-M-15 = test: Aztreonam potentiation (MPC@4), strain KP1009 CTX-M-15; details: minimum BLI concentration inhibiting growth with aztreonam 4 μg/mL; tested up to 40 μg/mL
KP1005 CTX-M-14 = test: Tigemonam potentiation (MPC@4), strain KP1005 CTX-M-14; details: minimum BLI concentration inhibiting growth with tigemonam 4 μg/mL; tested up to 40 μg/mL
AB1053 OXA-72 = test: Meropenem potentiation (MPC@8), strain AB1053 OXA-72; type: cell-based, Acinetobacter baumannii; details: minimum BLI concentration inhibiting growth with meropenem 8 μg/mL; tested up to 20 μg/mL
AB1054 OXA-23 = test: Meropenem potentiation (MPC@8), strain AB1054 OXA-23; type: cell-based, Acinetobacter baumannii; details: minimum BLI concentration inhibiting growth with meropenem 8 μg/mL; tested up to 20 μg/mL
[6] = biological target: T1, purified class A, C and D enzymes (β-lactamases) (Acinetobacter baumannii, UniProt Q9L4P2); test: biochemical; type: biochemical; details: purified OXA-23; nitrocefin (NCF) as reporter substrate
T1 construct: rows headed: Ki (OXA-23, NCF), uM; other: purified OXA-23; nitrocefin (NCF) as reporter substrate

[7] = biological target: purified class A, C and D enzymes (β-lactamases) (Enterobacter cloacae, UniProt P05364); test: biochemical; type: biochemical
[8] = biological target: T2, purified class A, C and D enzymes (β-lactamases) (Pseudomonas aeruginosa, UniProt P24735); test: biochemical; type: biochemical
T2 construct: rows headed: Ki (Pa-AmpC, NCF), uM; other: purified Pa-AmpC; nitrocefin (NCF) as reporter substrate

[9] = purified CTX-M-14, nitrocefin (NCF) as reporter substrate
[10] = purified OXA-48, nitrocefin (NCF) as reporter substrate
[11] = purified KPC-2, nitrocefin (NCF) as reporter substrate

purified class A, C and D enzymes (β-lactamases) (Enterobacter cloacae, UniProt P05364), sequence (P05364 21-381): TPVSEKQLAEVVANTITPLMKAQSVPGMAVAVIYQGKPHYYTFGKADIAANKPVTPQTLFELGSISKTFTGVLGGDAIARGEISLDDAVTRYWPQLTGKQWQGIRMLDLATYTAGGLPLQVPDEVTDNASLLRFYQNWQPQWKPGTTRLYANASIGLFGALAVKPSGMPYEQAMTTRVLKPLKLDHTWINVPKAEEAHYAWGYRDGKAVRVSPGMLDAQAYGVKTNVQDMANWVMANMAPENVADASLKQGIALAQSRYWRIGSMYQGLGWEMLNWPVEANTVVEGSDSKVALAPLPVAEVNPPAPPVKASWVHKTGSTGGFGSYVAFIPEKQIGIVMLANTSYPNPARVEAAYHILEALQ
T1 sequence (Q9L4P2 whole entry): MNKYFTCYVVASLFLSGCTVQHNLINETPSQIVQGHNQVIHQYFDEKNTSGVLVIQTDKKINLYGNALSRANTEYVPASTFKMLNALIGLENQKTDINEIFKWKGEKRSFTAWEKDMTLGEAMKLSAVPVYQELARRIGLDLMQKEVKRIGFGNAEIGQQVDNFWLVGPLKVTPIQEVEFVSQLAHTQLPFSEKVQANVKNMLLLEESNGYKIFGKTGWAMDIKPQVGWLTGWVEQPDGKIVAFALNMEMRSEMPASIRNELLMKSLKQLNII
purified class A, C and D enzymes (β-lactamases) (Escherichia coli, UniProt Q9L5C7), sequence (Q9L5C7 entry or part of it): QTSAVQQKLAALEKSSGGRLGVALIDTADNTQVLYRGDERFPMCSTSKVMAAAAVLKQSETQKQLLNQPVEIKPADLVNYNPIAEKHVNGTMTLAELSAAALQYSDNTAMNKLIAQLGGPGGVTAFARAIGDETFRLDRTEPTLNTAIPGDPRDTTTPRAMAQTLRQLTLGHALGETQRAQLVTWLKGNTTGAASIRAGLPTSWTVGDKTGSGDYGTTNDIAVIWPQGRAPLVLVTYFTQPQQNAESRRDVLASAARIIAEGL
T2 sequence (P24735 whole entry): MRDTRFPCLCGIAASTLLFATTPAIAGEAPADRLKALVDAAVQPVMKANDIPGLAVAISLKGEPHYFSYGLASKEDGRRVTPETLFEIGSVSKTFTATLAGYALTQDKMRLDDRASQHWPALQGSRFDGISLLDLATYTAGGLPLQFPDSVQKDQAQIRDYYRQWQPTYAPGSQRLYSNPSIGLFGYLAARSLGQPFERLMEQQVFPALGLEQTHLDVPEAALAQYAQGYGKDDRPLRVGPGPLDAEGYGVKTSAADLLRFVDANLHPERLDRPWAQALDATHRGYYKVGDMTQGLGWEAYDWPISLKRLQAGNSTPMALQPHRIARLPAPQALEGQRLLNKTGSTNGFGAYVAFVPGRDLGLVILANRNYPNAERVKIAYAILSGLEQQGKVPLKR

SMILES | BPM MPC1 KP1004 KPC-2 (KP1004 KPC-2 [1]) | BPM MPC1 OXA-48 KP1086 (KP1086 OXA-48) | AZT MPC4 ECL1002 (ECL1002) | AZT MPC4 SHV-5 ec308 (ec308 SHV-5) | AZT MPC4 TEM-10 ec302 (ec302 TEM-10) | AZT MPC4 KPC-2 KP1004 (KP1004 KPC-2 [5]) | AZT MPC4 CMY-6 EC1010 (EC1010 CMY-6) | AZT MPC4 SHV-12 KP1010 (KP1010 SHV-12) | AZT MPC4 CTX-M-15 KP1009 (KP1009 CTX-M-15) | TIG MPC4 CTX-M-14 KP1005 (KP1005 CTX-M-14) | MPM MPC8 AB1053 OXA-72 (AB1053 OXA-72) | MPM MPC8 AB1054 OXA-23 (AB1054 OXA-23) | pKi [6] | Ki (P99, NCF), uM [7] | Ki (CTX-M-14, NCF), uM [2, 9] | Ki (OXA-48, NCF), uM [3, 10] | Ki (KPC-2, NCF), uM [4, 11] | pKi [8] | other results
O=C(O)[C@H]1/C(=C/CO)O[C@@H]2CC(=O)N21 [Clavulanic Acid, reference compound] | Y (Y = 5 μg/mL < MPC@1 ≤ 20 μg/mL) | Z (Z = MPC@1 > 20 μg/mL) | Z (Z = MPC@4 > 20 μg/mL) | X (X = MPC@4 ≤ 5 μg/mL) | X (X = MPC@4 ≤ 5 μg/mL) | Z (Z = MPC@4 > 20 μg/mL) | Z (Z = MPC@4 > 20 μg/mL) | X (X = MPC@4 ≤ 5 μg/mL) | X (X = MPC@4 ≤ 5 μg/mL) | X (X = MPC@4 ≤ 5 μg/mL) | – | – | – | – | – | – | – | – | Ki (CTX-M-14, NCF), uM [2]: X (key: X = Ki ≤ 0.1 μM; Y = 0.1 μM < Ki ≤ 1 μM; Z = Ki > 1 μM); Ki (OXA-48, NCF), uM [3]: Z (key: X = Ki ≤ 0.1 μM; Y = 0.1 μM < Ki ≤ 1 μM; Z = Ki > 1 μM); Ki (KPC-2, NCF), uM [4]: Z (key: X = Ki ≤ 0.1 μM; Y = 0.1 μM < Ki ≤ 1 μM; Z = Ki > 1 μM)
COc1ccc2c(c1C(=O)[O-])O[B-](O)(O)[C@@H](C)C2.[Na+].[Na+] [Compound 11, Disodium; (3S)-4,4-dihydroxy-8-methoxy-3-methyl-5-oxa-4-boranuidabicyclo[4.4.0]deca-1(6),7,9-triene-7-carboxylate] | X (X = MPC@1 ≤ 5 μg/mL) | Y (Y = 5 μg/mL < MPC@1 ≤ 20 μg/mL) | Y (Y = 5 μg/mL < MPC@4 ≤ 20 μg/mL) | Y (Y = 5 μg/mL < MPC@4 ≤ 20 μg/mL) | Y (Y = 5 μg/mL < MPC@4 ≤ 20 μg/mL) | Y (Y = 5 μg/mL < MPC@4 ≤ 20 μg/mL) | X (X = MPC@4 ≤ 5 μg/mL) | Y (Y = 5 μg/mL < MPC@4 ≤ 20 μg/mL) | Y (Y = 5 μg/mL < MPC@4 ≤ 20 μg/mL) | Z (Z = MPC@4 > 20 μg/mL) | X (X = MPC@1 ≤ 5 μg/mL) | Y (Y = 5 μg/mL < MPC@1 ≤ 20 μg/mL) | > 7.00 | X (key: X = Ki ≤ 0.1 μM; Y = 0.1 μM < Ki ≤ 1 μM; Z = Ki > 1 μM) | X (X = Ki ≤ 0.1 μM) | X (X = Ki ≤ 0.1 μM) | X (X = Ki ≤ 0.1 μM) | > 7.00 | –
COc1ccc2c(c1C(=O)[O-])O[B-](O)(O)[C@@H](CCO)C2.[Na+].[Na+] [Compound 12, Disodium; (3R)-4,4-dihydroxy-3-(2-hydroxyethyl)-8-methoxy-5-oxa-4-boranuidabicyclo[4.4.0]deca-1(6),7,9-triene-7-carboxylate] | X (X = MPC@1 ≤ 5 μg/mL) | Y (Y = 5 μg/mL < MPC@1 ≤ 20 μg/mL) | Y (Y = 5 μg/mL < MPC@4 ≤ 20 μg/mL) | Y (Y = 5 μg/mL < MPC@4 ≤ 20 μg/mL) | Z (Z = MPC@4 > 20 μg/mL) | Y (Y = 5 μg/mL < MPC@4 ≤ 20 μg/mL) | Y (Y = 5 μg/mL < MPC@4 ≤ 20 μg/mL) | Y (Y = 5 μg/mL < MPC@4 ≤ 20 μg/mL) | Y (Y = 5 μg/mL < MPC@4 ≤ 20 μg/mL) | Z (Z = MPC@4 > 20 μg/mL) | Y (Y = 5 μg/mL < MPC@1 ≤ 20 μg/mL) | Y (Y = 5 μg/mL < MPC@1 ≤ 20 μg/mL) | 6.00 to 7.00 | X (key: X = Ki ≤ 0.1 μM; Y = 0.1 μM < Ki ≤ 1 μM; Z = Ki > 1 μM) | X (X = Ki ≤ 0.1 μM) | X (X = Ki ≤ 0.1 μM) | X (X = Ki ≤ 0.1 μM) | 6.00 to 7.00 | –
N#CCOc1ccc2c(c1C(=O)O)OB(O)CC2 [Compound 47, 7-(Cyanomethoxy)-2-hydroxy-3,4-dihydro-1,2-benzoxaborinine-8-carboxylic acid] | X (X = MPC@1 ≤ 5 μg/mL) | X (X = MPC@1 ≤ 5 μg/mL) | X (X = MPC@4 ≤ 5 μg/mL) | X (X = MPC@4 ≤ 5 μg/mL) | X (X = MPC@4 ≤ 5 μg/mL) | X (X = MPC@4 ≤ 5 μg/mL) | X (X = MPC@4 ≤ 5 μg/mL) | X (X = MPC@4 ≤ 5 μg/mL) | X (X = MPC@4 ≤ 5 μg/mL) | X (X = MPC@4 ≤ 5 μg/mL) | X (X = MPC@1 ≤ 5 μg/mL) | X (X = MPC@1 ≤ 5 μg/mL) | > 7.00 | – | – | X (X = Ki ≤ 0.1 μM) | X (X = Ki ≤ 0.1 μM) | – | Ki (P99, NCF), uM ([7]; purified P99, nitrocefin (NCF) as reporter substrate): X (X = Ki ≤ 0.1 μM); pKi ([8]; purified Pa-AmpC, nitrocefin (NCF) as reporter substrate, read-out: Ki (Pa-AmpC, NCF)): > 7.00
N#Cc1ccc2c(c1C(=O)[O-])O[B-](O)(O)CC2.[Na+].[Na+] [Compound 54, Disodium; 8-cyano-4,4-dihydroxy-5-oxa-4-boranuidabicyclo[4.4.0]deca-1(6),7,9-triene-7-carboxylate] | X (X = MPC@1 ≤ 5 μg/mL) | Z (Z = MPC@1 > 20 μg/mL) | Z (Z = MPC@4 > 20 μg/mL) | Z (Z = MPC@4 > 20 μg/mL) | Z (Z = MPC@4 > 20 μg/mL) | Z (Z = MPC@4 > 20 μg/mL) | Y (Y = 5 μg/mL < MPC@4 ≤ 20 μg/mL) | Z (Z = MPC@4 > 20 μg/mL) | Z (Z = MPC@4 > 20 μg/mL) | Z (Z = MPC@4 > 20 μg/mL) | Z (Z = MPC@1 > 20 μg/mL) | Z (Z = MPC@1 > 20 μg/mL) | 6.00 to 7.00 | Y (key: X = Ki ≤ 0.1 μM; Y = 0.1 μM < Ki ≤ 1 μM; Z = Ki > 1 μM) | – | X (X = Ki ≤ 0.1 μM) | Z (Z = Ki > 1 μM) | < 6.00 | –
